According to patent US9630925B2, “HSP90 inhibitor and preparation method and use thereof” (priority 2010, dated 2017):

How the values were obtained:
[1] = system: Herpes Simplex Virus Type II Strain 333 (HSV-2 333); test: Anti-HSV-2 activity by CPE method; assay type: cell-based; settings: HSV-2, Vero, 48 hours
Text: (§1) In this example, the Vero cell line (ATCC CCL81, purchased from ATCC, US) was used as the normal cell. […] The cytopathic effect (CPE) was then observed under an optical microscope.

[2] = system: Herpes Simplex Virus Type I Strain F (HSV-1 F); test: Plaque reduction assay (PRA), HSV-1; assay type: cell-based; settings: for IC50: Human alphaherpesvirus 1, plaque reduction, Vero, n = 3, read-out: Antiviral activity HSV-1 IC50
Protocol: (§2) In this example, the Vero cell line (ATCC CCL81, purchased from ATCC, US) was used as the normal cell.
(§3) The Vero cells were cultured to a monolayer on 24 well plates. […] The virus solutions were suck out and discarded. […] After observing for 72 hours, they were fixed for 30 minutes with 10% formaldehyde, stained for 30 minutes with 1% crystal violet, rinsed with water, and dried. The plaques were counted with reference to Nitta's method, and the plaque inhibition rate was calculated.
(§4) A curve graph was plotted with the logarithmic value of the drug concentration as the horizontal coordinate, and the plaque inhibition rate as the vertical coordinate.

[3] = system: Herpes Simplex Virus Type II Strain 333 (HSV-2 333); test: Plaque reduction assay (PRA), HSV-2; assay type: cell-based; settings: for IC50: Human alphaherpesvirus 2, plaque reduction, Vero, n = 3, read-out: Antiviral activity HSV-2 IC50
Protocol: as §2, §3, §4

Vero cells = test: in vitro
Protocol: (§5) The cells were cultured overnight, and the culture solutions were discarded. […] Then the Vero cells were incubated for an additional 48 hours. The ATP levels in the Vero cells and the AK release quantity in the supernatant of the culture solutions were determined using kits from Lonza, US (Vialight HS kit and Toxilight bioassay kit). The maximum non-toxic concentration of the drug on the Vero cells within 48 hours were then assayed. The positive drug 17-AAG was used as control in the experiment (starting from 10 μM, double dilution of 6 concentrations).

[4] = system: human chronic myeloid leukemia cells (K562); test: MTT proliferation inhibition, K562
Protocol: (§6) In this example, the positive control was 17-AAG (purchased from Alexis Biochemicals Company, US); and the applied cell lines of K562, Hela, A375, Mcf-7, etc., were all purchased from ATCC, Manassas, Va., USA.
Quadruplicate wells were set for each of the concentrations, and the experimental groups, the solvent control groups, and the blank groups were set for the experiments. The 96 well plates were placed in an incubator at 37° C., 5% CO2, and incubated for 48 hours.
(3) With reference to the MTT method established by Mosmann, 20 μL, MTT solution was added to each of the wells and incubation continued for 4 hours. The solution in each well was sucked out and discarded carefully. Then 100 mL DMSO was added to each of the wells, and the mixture shaken for 15 minutes on a shaker in the dark. The colorimetric measurements were carried out on a microplate reader (with a wavelength of 570 nm, and a reference wavelength of 630 nm), and the absorbances (A value) were determined. The half toxic concentration (IC50) of the drug was calculated.

[5] = system: human cervical carcinoma cells (Hela); test: MTT proliferation inhibition, Hela
Text: as §6
(§7) (2) Human cervical carcinoma cells (Hela), human malignant melanoma cells (A375), human laryngeal epithelial cancer cells (Hep-2), and human breast cancer cells (MCF-7) in logarithmic growth phase were taken, and regulated into single cell suspensions having a cell concentration of 2×10^5/mL with a DMEM culture medium containing 10% fetal bovine serum (purchased from GIBCO BRL, US). Then the single cell suspensions were seeded into 96 well plates, 100 μL/well. The cells were cultured overnight, making them attach to the wall. […] Quadruplicate wells were set for each of the concentrations, and the experimental groups, the solvent control groups, and the blank groups were set for the experiments. The 96 well plates were placed in an incubator at 37° C., 5% CO2, and incubated for 48 hours.
(§8) (3) With reference to the MTT method established by Mosmann, 20 μL, MTT solution was added to each of the wells and incubation continued for 4 hours. […] The colorimetric measurements were carried out on a microplate reader (with a wavelength of 570 nm, and a reference wavelength of 630 nm), and the absorbances (A value) were determined. The half toxic concentration (IC50) of the drug was calculated.

[6] = system: human malignant melanoma cells (A375); test: MTT proliferation inhibition, A375
Text: as §6, §7, §8

[7] = system: human breast cancer cells (MCF-7); test: MTT proliferation inhibition, MCF-7
Text: as §6, §7, §8

[8] = system: human laryngeal epithelial cancer cells (Hep-2); test: MTT proliferation inhibition, Hep-2
Text: as §6, §7, §8

Hsp90 = settings: background statement; cited from earlier work
in vitro = settings: African green monkey
Protocol: as §5

[9] = system: Herpes Simplex Virus Type 1 Strain F (HSV-1 F); test: Anti-HSV-1 activity by CPE method; assay type: cell-based; settings: HSV-1, Vero, 48 hours
Text: as §1

With `Nc1nc2c(ncn2COCCO)c(=O)[nH]1` [ACV, Acyclovir, reference compound] the CPE ([1]; 0.16 μM) was “++ (26%-50% ++)”, the CPE ([1]; 0.31 μM) was “++ (26%-50% ++)” and the IC50 [2] was 4.16 ± 1.02 µM. For the same compound, the IC50 [3] was 3.32 ± 0.44 µM.

Work on `C=CCNC1=C2C[C@@H](C)C[C@H](OC)[C@H](O)[C@@H](C)/C=C(\C)[C@H](OC(N)=O)[C@@H](OC)/C=C\C=C(/C)C(=O)NC(=CC1=O)C2=O` [Compound 17-AAG, 17-allylaminogeldanamycin, reference compound] yielded a maximum non-toxic concentration (Vero cells; Vero cells, 48 hours) of 0.63 µM, an IC50 ([4]; K562, MTT, 48 hours) of 2.43 ± 0.68 µM and an IC50 ([5]; Hela, MTT, 48 hours) of 5.42 ± 0.18 µM. The IC50 ([6]; A375, MTT, 48 hours) was 3.13 ± 0.15 µM, the IC50 ([7]; MCF-7, MTT, 48 hours) was 3.24 ± 0.15 µM and the IC50 ([8]; Hep-2, MTT, 48 hours) was 2.33 ± 0.3 µM.

For `CO[C@@H]1[C@@H](OC(N)=O)[C@@H](O)[C@H](Oc2ccc3c(O)c(NC(=O)c4ccc(O)c(CC=C(C)C)c4)c(=O)oc3c2C)OC1(C)C` [Novobiocin], the “concentration used as an inhibitor of Hsp90” value (Hsp90) is listed as “up to 700 μM”.

In the case of `CC(=O)OC(CC(=O)OC1CCC(Nc2cc(-n3nc(C)c4c3CC(C)(C)CC4=O)ccc2C(N)=O)CC1)C[N+](C)(C)C.[Cl-]` (stereo not shown) [Xbj-B16-1, 2-(4-(3-acetylcarnitineacyloxy)cyclohexylamino)-4-(1-(3,6,6-trimethyl-4-oxy-4,5,6,7-terahydroindazole))benzamide], the CC50 at 48 h (in vitro) is reported as 47.8 ± 3.53 µM, the “Toxity TC0 (the maximum non-toxic concentration)” value (Vero cells; African green monkey, 48 h) is reported as 12.5 µM and the maximum non-toxic concentration (Vero cells; African green monkey, 48 h) is reported as 12.5 µM. The CPE ([9]; 0.39 μM) was “++++ (76%-100% ++++)”, the CPE ([9]; 0.78 μM) was “++++ (76%-100% ++++)” and the CPE ([9]; 1.56 μM) was “++++ (76%-100% ++++)”. For the same compound, the CPE ([9]; 3.13 μM) was “+++ (51%-75% +++)”, the CPE ([9]; 6.25 μM) was “++ (26%-50% ++)” and the CPE ([1]; 0.39 μM) was “++++ (76%-100% ++++)”. The CPE ([1]; 0.78 μM) was “++++ (76%-100% ++++)”, the CPE ([1]; 1.56 μM) was “++++ (76%-100% ++++)” and the CPE ([1]; 3.13 μM) was “+++ (51%-75% +++)”. The CPE ([1]; 6.25 μM) was “+++ (51%-75% +++)”, the CPE ([1]; 12.5 μM) was “+ (0-25% +)” and the IC50 [2] was 2.96 ± 0.56 µM. The “HSV-1 TI (therapeutic index, TC50/IC50)” value ([2]; TC50/IC50) was 16.14, the IC50 [3] was 3.2 ± 0.33 µM and the “HSV-2 TI (therapeutic index, TC50/IC50)” value ([3]; TC50/IC50) was 14.93. For the same compound, the IC50 ([4]; Homo sapiens, K562, 48 h) was 8.31 ± 1.78 µM, the IC50 ([5]; Homo sapiens, HeLa, 48 h) was 10.3 ± 2.48 µM and the IC50 ([6]; Homo sapiens, A-375, 48 h) was 7.23 ± 1.31 µM. It also gave an IC50 ([7]; Homo sapiens, MCF7, 48 h) of 9.53 ± 2.03 µM and an IC50 ([8]; Homo sapiens, HEp-2, 48 h) of 6.37 ± 2.13 µM.
